{"source": "patent US7008633B2", "about": "(priority 2000, dated 2006)", "key": {"[1]": {"settings": "in vivo, cited from earlier work"}, "[2]": {"settings": "in vivo; cited from earlier work"}, "multiple myeloma": {"tested_on": "multiple myeloma", "settings": "oral administration; cited from earlier work"}, "[3]": {"experiment": "In vitro slow release of cisplatin from alginate beads", "assay_type": "physicochemical", "settings": "incubated in PBS at 37° C.", "protocol": "To study in vitro slow release of an anticancer drug from a polymer, the anticancer drug cisplatin and the polymer sodium alginate were tested for slow release of the drug. Cisplatin-loaded alginate beads (SA-CDDP) were formed instantly and then incubated in phosphate-buffered saline (PBS) in tubes at 37° C. Cisplatin was completely released from the alginate beads in 15 hours, which is considerably slower than the release time (within 2.5 hours) of cisplatin powder only (control) (FIG. 1)."}, "[4]": {"experiment": "Blood chemical assay (BUN, serum creatinine) to detect renal toxicity", "assay_type": "in vivo, rat", "settings": "for BUN / SERUM CREATININE: intratumoral 3 MG/KD, breast tumor-bearing rats", "protocol": "The SA-CDDP (0.1 ml; cisplatin dose was 3 mg/kg body weight) was injected directly into the tumors through 27 G needles. In a preferred embodiment, about […] SA is used per injection. Calcium chloride (8% in water) was then injected into the same place to form cisplatin-loaded alginate beads in the tumors. The tumor size was measured to determine the anticancer effect, and the blood chemical assay (blood urea nitrogen [BUN] and serum creatinine) were performed to detect renal toxicity.\nOn day 40, BUN in five experimental rats and five healthy rats (control) were 18.30±1.51 mg/dl and 17.88±2.24 mg/dl, respectively. There was no statistical significance (p>0.05) between the two. Serum creatinine levels were the same as in both experimental and control rats (0.6 mg/dl)."}}, "note": "Counter-ions that a name gives are not always drawn. Numbered stars: 1 amine (or outer) side, 2 acyl side, 3 side chain; on linkers, the order of the positions; unused ones are H or OH. Bridge positions count the residues as written; N and C are the ends. Square brackets hold non-standard residues; d marks the D form. Peptide text beside a SMILES is read from it. I, II: the chains in the order shown. Actinocin(9to1) = Cc1c2oc3c(C)ccc(C(=O)[*:1])c3nc-2c(C(=O)[*:2])c(N)c1=O; NMeV = CN[C@H](C(=O)O)C(C)C; Sar = CNCC(=O)O", "data": [{"smiles": "COc1cccc2c1C(=O)c1c(O)c3c(c(O)c1C2=O)C[C@@](O)(C(C)=O)C[C@@H]3O[C@H]1C[C@H](N)[C@H](O)[C@H](C)O1", "note": "[Daunorubicin, 5,12-Naphthacenedione, (8S-cis)-8-acetyl-10-[(3-amino-2,3,6-trideoxy-a-L-lyxo-hexanopyranosyl)oxy]-7,8,9,10-tetrahydro-6,8,11-trihydroxy-10-methoxy-, hydrochloride]", "values": [{"measurement": "oral absorption", "setting": "[1]; po", "value": "Oral absorption is poor"}]}, {"smiles": "CO[C@@]12[C@H](COC(N)=O)C3=C(C(=O)C(C)=C(N)C3=O)N1C[C@@H]1N[C@@H]12", "note": "[Mitomycin]", "values": [{"measurement": "share of a dose excreted unchanged in the urine", "setting": "[2]", "value": "Approximately 10%"}]}, {"smiles": "Cc1c2oc3c(C)ccc(C(=O)N[C@@H]4C(=O)N[C@H](C(C)C)C(=O)N5CCC[C@H]5C(=O)N(C)CC(=O)N(C)[C@@H](C(C)C)C(=O)O[C@@H]4C)c3nc-2c(C(=O)N[C@@H]2C(=O)N[C@H](C(C)C)C(=O)N3CCC[C@H]3C(=O)N(C)CC(=O)N(C)[C@@H](C(C)C)C(=O)O[C@@H]2C)c(N)c1=O", "note": "[Actinomycin D] (I: T[dV]P[Sar][NMeV] / II: T[dV]P[Sar][NMeV]; ester I:1-I:C, II:1-II:C; linker I:N-II:N via Actinocin(9to1))", "values": [{"measurement": "share of the dose excreted intact into the bile", "setting": "[1]", "value": "Half of the dose"}, {"measurement": "share of the dose excreted or detected intact in the urine", "setting": "[1]", "value": 10, "unit": "%"}]}, {"smiles": "CC[C@]1(O)C[C@@H]2CN(CCc3c([nH]c4ccccc34)[C@@](C(=O)OC)(c3cc4c(cc3OC)N(C)[C@H]3[C@@](O)(C(=O)OC)[C@H](OC(C)=O)[C@]5(CC)C=CCN6CC[C@]43[C@@H]65)C2)C1", "note": "[Vinblastine]", "values": [{"measurement": "share of the dose excreted or detected intact in the urine", "setting": "[1]", "value": "Approximately 15%"}]}, {"smiles": "N[C@@H](Cc1ccc(N(CCCl)CCCl)cc1)C(=O)O", "note": "[Melphalan, 4-[bis(2-chloroethyl)amino]-L-phenylalanine]", "values": [{"measurement": "share of patients with a favorable response", "setting": "multiple myeloma", "value": "about one third to one half"}]}, {"smiles": "O=NN(CCCl)C(=O)NC1CCCCC1", "note": "[Lomustine, 1-(2-chloro-ethyl)-3-cyclohexyl-1 nitrosourea]", "values": [{"measurement": "radioactivity excreted in the form of degradation products", "setting": "[1]; po", "value": "about half"}]}, {"smiles": "[NH2][Pt]([NH2])([Cl])[Cl]", "note": "[CDDP, cisplatin]", "values": [{"measurement": "time to complete release of cisplatin", "setting": "[3]", "value": "≤ 2.5", "unit": "h"}, {"measurement": "nephrotoxicity", "setting": "[4]; CDDP intratumorally", "value": "a clear nephrotoxicity was observed"}, {"measurement": "BUN", "setting": "[4]; day 2", "value": 56.21, "unit": "mg/dL"}, {"measurement": "SERUM CREATININE", "setting": "[4]; day 2", "value": 1.5, "unit": "mg/dL"}, {"measurement": "BUN", "setting": "[4]; day 5", "value": 246.42, "unit": "mg/dL"}, {"measurement": "SERUM CREATININE", "setting": "[4]; day 5", "value": 7.03, "unit": "mg/dL"}, {"measurement": "BUN", "setting": "[4]; day 7", "value": 152.35, "unit": "mg/dL"}, {"measurement": "SERUM CREATININE", "setting": "[4]; day 7", "value": 2.4, "unit": "mg/dL"}, {"measurement": "BUN", "setting": "[4]; day 16", "value": 41.75, "unit": "mg/dL"}, {"measurement": "SERUM CREATININE", "setting": "[4]; day 16", "value": 0.7, "unit": "mg/dL"}, {"measurement": "oral absorption", "setting": "[1]; po", "value": "not absorbed orally"}]}]}
